Laboratory results published in patent US11248017B2, “Anti-inflammatory composition including novel kaempferol-based compound derived from post-fermented tea” (AMOREPACIFIC CORPORATION, priority 2017, dated 2022).

Key:
IL-6 (Interleukin 6) = assay: IL-6 production inhibition experiment (ELISA); assay type: cell-based, Human; details: for IL-6: human fibroblasts, 500 μM H2O2 24 h, then test substance (33: 100 μg/ml) 48 h, culture medium
Experimental: (§1) Human fibroblasts (PromoCell, Germany) were seeded into 6-well culture plates at a concentration of 1×10^5 cells and incubated in 37° C., 5% CO2 incubator for 24 hours. After 500 μM of H2O2 was treated in a well and stimulated for 24 hours, the kaempferol3-O-[2-O″-(E)-p-coumaroyl][beta-D-glucopyranosyl-(1-3)-O-alpha-L-rhamnopyranosyl-(1→6)-O-beta-D-glucopyranoside](‘new material 33’) was treated at a concentration of 100 μg/ml each, and was reacted for 48 hours. After completion of the reaction, the culture medium was collected and subjected to ELISA analysis. At this time, α-bisabolol, which is a material frequently used as an anti-inflammation agent and an abirritant, was used as a control. PGE2 used Assay Design's kit and IL-6 and IL-8 used Endogen's kit, and the experiment was conducted according to the method specified in each company's manual. (‘33’ means new material 33) Inhibitory effect={1−(test sample−control)/(H2O2−control)}×100 <Equation 1>

PGE2 (Prostaglandin E2) = assay: PGE2 production inhibition experiment (ELISA); assay type: cell-based, Human; details: for PGE2: human fibroblasts, 500 μM H2O2 24 h, then test substance (33: 100 μg/ml) 48 h, culture medium
Experimental: as §1

skin = assay: Skin accumulation stimulation experiment, human repeated insult patch test (HRIPT); assay type: in vivo; set-up: key to skin reactivity (ICDRG criteria): −: negative (no response); ±: doubtful or slight erythema, etc.; +: weak reaction (which is accompanied with no phlyctenule), erythema, papule; ++: severe reaction (which is accompanied with phlyctenule), erythema, papule, phlyctenule; +++: strong reaction, bullae reaction; details: for Average reactivity: 9 patches over 3 weeks, 15 subjects, less than 3 = stable composition
Experimental: Human repeated insult patch tests (HRIPT) were performed to confirm the skin accumulation stimulation of the kaempferol3-O-[2-O″-(E)-p-coumaroyl][beta-D-glucopyranosyl-(1→3)-O-alpha-L-rhamnopyranosyl-(1→6)-O-beta-D-glucopyranoside] and to calculate the concentration range available for the skin.
Specifically, 15 healthy adult subjects were randomly selected, and the test composition (the skin composition including an emulsifier, a stabilizer, purified water, etc. in addition to the compound) containing 0.5 wt %, 1 wt %, and 3 wt % of the compound was added dropwise by 20 μl per chamber (IQ chamber, Epitest Ltd, Finland). After 24 hours from patching the upper right part of the back of a subject, it was replaced with the new patch. A total of 9 patches were conducted, three times a week for total 3 weeks, in such manner, the skin reactions before and after patch were examined every time, and the skin reactions until 48 hours after removing the final patch were observed, and the average reactivity was observed.
The skin response was determined according to the criteria of the International Contact Dermatitis Research Group (ICDRG). ‘New material 33’ in the table above is kaempferol3-O-[2-O″-(E)-p-coumaroyl][beta-D-glucopyranosyl-(1→3)-O-alpha-L-rhamnopyranosyl-(1→6)-O-beta-D-glucopyranoside].

IL-8 (Interleukin 8) = assay: IL-8 production inhibition experiment (ELISA); assay type: cell-based, Human; details: for IL-8: human fibroblasts, 500 μM H2O2 24 h, then test substance (33: 100 μg/ml) 48 h, culture medium
Experimental: as §1

## C[C@@H]1O[C@@H](OC[C@H]2O[C@@H](Oc3c(-c4ccc(O)cc4)oc4cc(O)cc(O)c4c3=O)[C@H](OC(=O)/C=C/c3ccc(O)cc3)[C@@H](O)[C@@H]2O)[C@H](O)[C@H](O[C@@H]2O[C@H](CO)[C@@H](O)[C@H](O)[C@H]2O)[C@H]1O [new material 33, kaempferol3-O-[2-O″-(E)-p-coumaroyl][beta-D-glucopyranosyl-(1→3)-O-alpha-L-rhamnopyranosyl-(1→6)-O-beta-D-glucopyranoside]]
IL-6 (Interleukin 6); Homo sapiens, 100 μg/ml, {1−(test sample−control)/(H2O2−control)}×100, control = a-bisabolol, read-out: Inhibitory Effect according to Equation 1, IL-6
  inhibition at 100 µg/mL: 72.3%
IL-6 (Interleukin 6)
  IL-6: 198 pg/mL
IL-6 (Interleukin 6); in words
  effect on IL-6 increased by H2O2: effect of reducing
PGE2 (Prostaglandin E2); Homo sapiens, 100 μg/ml, {1−(test sample−control)/(H2O2−control)}×100, control = a-bisabolol, read-out: Inhibitory Effect according to Equation 1, PGE2
  inhibition at 100 µg/mL: 82.1%
PGE2 (Prostaglandin E2)
  PGE2: 231 pg/mL
PGE2 (Prostaglandin E2); in words
  effect on PGE2 increased by H2O2: effect of reducing
skin; 0.5 wt %, 1st patch
  Number of subjects with + reactivity: 0 person
  Number of subjects with ++ reactivity: 0 person
  Number of subjects with ± reactivity: 0 person
skin; 0.5 wt %, 2nd patch
  Number of subjects with + reactivity: 0 person
  Number of subjects with ++ reactivity: 0 person
  Number of subjects with ± reactivity: 0 person
skin; 0.5 wt %, 3rd patch
  Number of subjects with + reactivity: 0 person
  Number of subjects with ++ reactivity: 0 person
  Number of subjects with ± reactivity: 0 person
skin; 0.5 wt %, 4th patch
  Number of subjects with + reactivity: 0 person
  Number of subjects with ++ reactivity: 0 person
  Number of subjects with ± reactivity: 0 person
skin; 0.5 wt %, 5th patch
  Number of subjects with + reactivity: 0 person
  Number of subjects with ++ reactivity: 0 person
  Number of subjects with ± reactivity: 0 person
skin; 0.5 wt %, 6th patch
  Number of subjects with + reactivity: 0 person
  Number of subjects with ++ reactivity: 0 person
  Number of subjects with ± reactivity: 0 person
skin; 0.5 wt %, 7th patch
  Number of subjects with + reactivity: 0 person
  Number of subjects with ++ reactivity: 0 person
  Number of subjects with ± reactivity: 0 person
skin; 0.5 wt %, 8th patch
  Number of subjects with + reactivity: 0 person
  Number of subjects with ++ reactivity: 0 person
  Number of subjects with ± reactivity: 0 person
skin; 0.5 wt %
  Average reactivity: 0
skin; 0.5 wt %, 9th patch
  Number of subjects with + reactivity: 0 person
  Number of subjects with ++ reactivity: 0 person
  Number of subjects with ± reactivity: 0 person
skin; 1 wt %, 1st patch
  Number of subjects with + reactivity: 0 person
  Number of subjects with ++ reactivity: 0 person
  Number of subjects with ± reactivity: 0 person
skin; 1 wt %, 2nd patch
  Number of subjects with + reactivity: 0 person
  Number of subjects with ++ reactivity: 0 person
  Number of subjects with ± reactivity: 0 person
skin; 1 wt %, 3rd patch
  Number of subjects with + reactivity: 0 person
  Number of subjects with ++ reactivity: 0 person
  Number of subjects with ± reactivity: 0 person
skin; 1 wt %, 4th patch
  Number of subjects with + reactivity: 0 person
  Number of subjects with ++ reactivity: 0 person
  Number of subjects with ± reactivity: 0 person
skin; 1 wt %, 5th patch
  Number of subjects with + reactivity: 0 person
  Number of subjects with ++ reactivity: 0 person
  Number of subjects with ± reactivity: 0 person
skin; 1 wt %, 6th patch
  Number of subjects with + reactivity: 0 person
  Number of subjects with ++ reactivity: 0 person
  Number of subjects with ± reactivity: 0 person
skin; 1 wt %, 7th patch
  Number of subjects with + reactivity: 0 person
  Number of subjects with ++ reactivity: 0 person
  Number of subjects with ± reactivity: 0 person
skin; 1 wt %, 8th patch
  Number of subjects with + reactivity: 0 person
  Number of subjects with ++ reactivity: 0 person
  Number of subjects with ± reactivity: 0 person
skin; 1 wt %
  Average reactivity: 0
skin; 1 wt %, 9th patch
  Number of subjects with + reactivity: 0 person
  Number of subjects with ++ reactivity: 0 person
  Number of subjects with ± reactivity: 0 person
skin; 3 wt %, 1st patch
  Number of subjects with + reactivity: 0 person
  Number of subjects with ++ reactivity: 0 person
  Number of subjects with ± reactivity: 0 person
skin; 3 wt %, 2nd patch
  Number of subjects with + reactivity: 0 person
  Number of subjects with ++ reactivity: 0 person
  Number of subjects with ± reactivity: 0 person
skin; 3 wt %, 3rd patch
  Number of subjects with + reactivity: 0 person
  Number of subjects with ++ reactivity: 0 person
  Number of subjects with ± reactivity: 0 person
skin; 3 wt %, 4th patch
  Number of subjects with + reactivity: 0 person
  Number of subjects with ++ reactivity: 0 person
  Number of subjects with ± reactivity: 0 person
skin; 3 wt %, 5th patch
  Number of subjects with + reactivity: 0 person
  Number of subjects with ++ reactivity: 0 person
  Number of subjects with ± reactivity: 0 person
skin; 3 wt %, 6th patch
  Number of subjects with + reactivity: 0 person
  Number of subjects with ++ reactivity: 0 person
  Number of subjects with ± reactivity: 0 person
skin; 3 wt %, 7th patch
  Number of subjects with + reactivity: 0 person
  Number of subjects with ++ reactivity: 0 person
  Number of subjects with ± reactivity: 0 person
skin; 3 wt %, 8th patch
  Number of subjects with + reactivity: 0 person
  Number of subjects with ++ reactivity: 0 person
  Number of subjects with ± reactivity: 0 person
skin; 3 wt %
  Average reactivity: 0
skin; 3 wt %, 9th patch
  Number of subjects with + reactivity: 0 person
  Number of subjects with ++ reactivity: 0 person
  Number of subjects with ± reactivity: 0 person
skin; content range 0.5 to 3 wt %, all subjects
  skin reactivity (ICDRG criteria): −
skin; content range 0.5 to 3 wt %, in words
  cumulative irritation of the skin: no cumulative irritation of the skin
IL-8 (Interleukin 8); Homo sapiens, 100 μg/ml, {1−(test sample−control)/(H2O2−control)}×100, control = a-bisabolol, read-out: Inhibitory Effect according to Equation 1, IL-8
  inhibition at 100 µg/mL: 88.9%
IL-8 (Interleukin 8)
  IL-8: 210 pg/mL
IL-8 (Interleukin 8); in words
  effect on IL-8 increased by H2O2: effect of reducing

## α-bisabolol [a-bisabolol, reference compound]
IL-6 (Interleukin 6)
  IL-6: 180 pg/mL
PGE2 (Prostaglandin E2)
  PGE2: 205 pg/mL
IL-8 (Interleukin 8)
  IL-8: 200 pg/mL
